Where a name gives a salt, the structure may show the parent alone.
Test system: ATGL-KO iPSCs
Test: High throughput iPSC chemical screening, Oil Red O (ORO) lipid accumulation; as to Z-score: test concentration or dose not given here
Format: cell-based, mouse
Conditions: not given

SMILES	Z-score
Oc1ccc2c3c1O[C@H]1[C@@H](O)CC[C@@]4(O)[C@@H](C2)N(CC2CCC2)CC[C@]314 [Nalbuphine hydrochloride]	−1.0996

Same assay, conditions: glycolytic switch compounds

SMILES	Rank in normalized ORO score from screen
CN(C/C=C/c1ccccc1)Cc1cccc2ccccc12 [Naftifine hydrochloride]	383

Same assay, conditions: normalized ORO level vs DMSO-treated cells; compound present during 7 days differentiation, 96-well; negative = decrease in lipid accumulation

SMILES	Z-score
CC#C[C@]1(O)CC[C@H]2[C@@H]3CCC4=CC(=O)CCC4=C3[C@@H](c3ccc(N(C)C)cc3)C[C@@]21C [Mifepristone]	−0.6348
Cc1[nH]c(=O)c(C#N)cc1-c1ccncc1 [Milrinone]	−0.2851
NC(Cn1ccc(=O)c(O)c1)C(=O)O (centres unmarked) [Mimosine]	0.9075
Cc1cc(-c2ccccc2)nnc1NCCN1CCOCC1 [Minaprine dihydrochloride]	0.429
CN(C)c1ccc(O)c2c1C[C@H]1C[C@H]3[C@H](N(C)C)C(O)=C(C(N)=O)C(=O)[C@@]3(O)C(O)=C1C2=O [Minocycline hydrochloride]	5.776
Nc1cc(N2CCCCC2)nc(N)[n+]1[O-] [Minoxidil]	0.06676
O=C1c2c(O)ccc(O)c2C(=O)c2c(NCCNCCO)ccc(NCCNCCO)c21 [Mitoxantrone dihydrochloride]	45.2169
CCc1c(C)[nH]c2c1C(=O)C(CN1CCOCC1)CC2 (centres unmarked) [Molindone hydrochloride]	2.263
CCOC(=O)[N-]c1cn(N2CCOCC2)n[o+]1 [Molsidomine]	1.761
C[C@@H]1C[C@H]2[C@@H]3CCC4=CC(=O)C=C[C@]4(C)[C@@]3(Cl)[C@@H](O)C[C@]2(C)[C@@]1(OC(=O)c1ccco1)C(=O)CCl [Mometasone furoate]	−0.7613
CC[C@@]1([C@@H]2O[C@@H]([C@H]3O[C@@](O)(CO)[C@H](C)C[C@@H]3C)C[C@@H]2C)CC[C@H]([C@]2(C)CC[C@]3(C[C@H](O)[C@@H](C)[C@@H]([C@@H](C)[C@@H](OC)[C@H](C)C(=O)O)O3)O2)O1 [Monensin sodium salt]	18.1768
Oc1ccc(OCc2ccccc2)cc1 [Monobenzone]	−1.7289
C[C@H]1C(=O)O[C@@H]2CCN3CC=C(COC(=O)[C@](C)(O)[C@]1(C)O)[C@H]23 [Monocrotaline]	−1.7819
Cc1ccsc1/C=C/C1=NCCCN1C [Morantel tartrate]	1.005
CCOC(=O)Nc1ccc2c(c1)N(C(=O)CCN1CCOCC1)c1ccccc1S2 [Moricizine hydrochloride]	−0.1525
Cl.N=C(N=C(N)N)N1CCOCC1 [Moroxidine hydrochloride]	0.05075
CO[C@@]1(NC(=O)C(C(=O)O)c2ccc(O)cc2)C(=O)N2C(C(=O)O)=C(CSc3nnnn3C)CO[C@@H]21 (some centres unmarked) [Moxalactam disodium salt]	−0.7608
CC(=O)Oc1cc(C(C)C)c(OCCN(C)C)cc1C.Cl [Moxisylyte hydrochoride]	−0.4722
COc1nc(C)nc(Cl)c1N=C1NCCN1 [Moxonidine]	−0.6893
COc1c(C)c2c(c(O)c1C/C=C(\C)CCC(=O)O)C(=O)OC2 [Mycophenolic acid]	36.1922
c1cncc(C2=NCCC2)c1 [Myosmine]	0.265
O=c1c(O)c(-c2cc(O)c(O)c(O)c2)oc2cc(O)cc(O)c12 [Myricetin]	27.33
CNc1ncnc2c1ncn2[C@@H]1O[C@H](CO)[C@@H](O)[C@H]1O [N6-methyladenosine]	−0.5287
CC(=O)N[C@@H](CC(C)C)C(=O)O [N-Acetyl-L-leucine]	−1.2512

SMILES	Z-score
COc1ccc2cc(CCC(C)=O)ccc2c1 [Nabumetone]	−0.6754
NC(=O)c1ccc[n+]([C@@H]2O[C@H](COP(=O)([O-])OP(=O)(O)OC[C@H]3O[C@@H](n4cnc5c(N)ncnc54)[C@H](O)[C@@H]3O)[C@@H](O)[C@H]2O)c1 [Nadide]	0.1385
CC(C)(C)NCC(O)COc1cccc2c1CC(O)C(O)C2 (centres unmarked) [Nadolol]	−1.7201
CCOc1ccc2ccccc2c1C(=O)N[C@@H]1C(=O)N2[C@@H]1SC(C)(C)[C@@H]2C(=O)O [Nafcillin sodium salt monohydrate]	−0.1498
CCN(CC)CCOC(=O)C(Cc1cccc2ccccc12)CC1CCCO1 (centres unmarked) [Nafronyl oxalate]	0.6546
CN(C/C=C/c1ccccc1)Cc1cccc2ccccc12 [Naftifine hydrochloride]	−0.6354
COc1ccccc1N1CCN(CC(O)COc2cccc3ccccc23)CC1 (centres unmarked) [Naftopidil dihydrochloride]	−0.9212
CCn1cc(C(=O)O)c(=O)c2ccc(C)nc21 [Nalidixic acid sodium salt hydrate]	−0.4868
C=CCN1CC[C@]23c4c5ccc(O)c4O[C@H]2C(=O)CC[C@@]3(O)[C@H]1C5 [Naloxone hydrochloride]	−0.3899
O=C1CC[C@@]2(O)[C@H]3Cc4ccc(O)c5c4[C@@]2(CCN3CC2CC2)[C@H]1O5 [Naltrexone hydrochloride dihydrate]	−0.609
C=C1[C@H]2C[C@@]3([C@@H]1O)[C@@H](C[C@@H]2O)[C@]12[C@@H]4C[C@H]3[C@H]1N(CC)C[C@]4(C)CC[C@@H]2O [Napelline]	−1.869
c1ccc2c(CC3=NCCN3)cccc2c1 [Naphazoline hydrochloride]	−0.8458
COc1ccc2cc([C@H](C)C(=O)O)ccc2c1 [Naproxen]	−0.3678
O=C1C[C@@H](c2ccc(O)cc2)Oc2cc(O)cc(O)c21 [Naringenine]	1.336
C[C@@H]1O[C@@H](O[C@H]2[C@H](Oc3cc(O)c4c(c3)O[C@H](c3ccc(O)cc3)CC4=O)O[C@H](CO)[C@@H](O)[C@@H]2O)[C@H](O)[C@H](O)[C@H]1O [Naringin hydrate]	2.68
C[C@@H]1C/C=C/C=C/C=C/C=C/[C@H](O[C@@H]2O[C@H](C)[C@@H](O)[C@H](N)[C@@H]2O)C[C@@H]2O[C@](O)(C[C@@H](O)C[C@H]3O[C@@H]3/C=C/C(=O)O1)C[C@H](O)[C@H]2C(=O)O [Natamycin]	0.06039
CN1CCOC(c2ccccc2)c2ccccc2C1 (centres unmarked) [Nefopam hydrochloride]	−0.0308
NC[C@@H]1O[C@H](O[C@H]2[C@@H](O)[C@H](O[C@@H]3[C@@H](O)[C@H](N)C[C@H](N)[C@H]3O[C@H]3O[C@H](CN)[C@@H](O)[C@H](O)[C@H]3N)O[C@@H]2CO)[C@H](N)[C@@H](O)[C@@H]1O.O=S(=O)(O)O [Neomycin sulfate]	−0.2127
CN(C)C(=O)Oc1cccc([N+](C)(C)C)c1 [Neostigmine bromide]	1.386
CCN[C@@H]1C[C@H](N)[C@@H](O[C@H]2OC(CN)=CC[C@H]2N)[C@H](O)[C@H]1O[C@H]1OC[C@](C)(O)[C@H](NC)[C@H]1O.CCN[C@@H]1C[C@H](N)[C@@H](O[C@H]2OC(CN)=CC[C@H]2N)[C@H](O)[C@H]1O[C@H]1OC[C@](C)(O)[C@H](NC)[C@H]1O.O=S(=O)(O)O.O=S(=O)(O)O.O=S(=O)(O)O.O=S(=O)(O)O.O=S(=O)(O)O [Netilmicin sulfate]	1.062
O=C(O)c1cccnc1 [Niacin]	−0.8285
O=C(CCNNC(=O)c1ccncc1)NCc1ccccc1 [Nialamide]	0.6794
COC(=O)C1=C(C)NC(C)=C(C(=O)OCCN(C)Cc2ccccc2)C1c1cccc([N+](=O)[O-])c1 (centres unmarked) [Nicardipine hydrochloride]	1.451
CO[C@]12C[C@@H](COC(=O)c3cncc(Br)c3)CN(C)[C@@H]1Cc1cn(C)c3cccc2c13 [Nicergoline]	0.2433

— patent publication US9393221B2, “Methods and compounds for reducing intracellular lipid storage” (THE GENERAL HOSPITAL CORPORATION, priority 2011, dated 2016)
